Test results published in US20250215029A1 (Recludix Pharma, Inc., priority 2022, published 2025).

How the values were obtained:
[1] = molecular target: T1, Recombinant STAT6 protein (STAT6 (W123-T658)) (Homo sapiens, UniProt P42226); assay: STAT6 Fluorescence Polarization (FP) Assay; assay type: binding; conditions: STAT6 (W123-T658) 250 nM, probe 5-FAM-Ap[…]-NH2 2 nM, 45-minute incubation; read-out: STAT6 (FP assay IC50 class)
T1 construct: Recombinant STAT6 protein (STAT6 (W123-T658))
T1 sequence (P42226 123-658): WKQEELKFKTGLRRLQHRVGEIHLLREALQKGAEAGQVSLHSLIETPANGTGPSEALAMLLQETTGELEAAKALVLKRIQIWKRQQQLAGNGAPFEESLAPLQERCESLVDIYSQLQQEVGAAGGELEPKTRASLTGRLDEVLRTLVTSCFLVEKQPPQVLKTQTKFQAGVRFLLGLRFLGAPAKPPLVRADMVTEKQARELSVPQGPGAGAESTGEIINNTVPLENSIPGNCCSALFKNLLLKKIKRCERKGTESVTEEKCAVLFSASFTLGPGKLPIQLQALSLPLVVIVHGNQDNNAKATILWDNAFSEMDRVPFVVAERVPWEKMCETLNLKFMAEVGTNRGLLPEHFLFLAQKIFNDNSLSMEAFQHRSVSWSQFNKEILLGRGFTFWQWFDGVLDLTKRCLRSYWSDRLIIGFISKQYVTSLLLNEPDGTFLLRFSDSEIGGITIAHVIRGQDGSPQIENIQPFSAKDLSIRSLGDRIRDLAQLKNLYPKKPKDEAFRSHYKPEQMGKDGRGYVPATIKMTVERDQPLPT
How it was run: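 Probe displacement format: serially diluted compounds incubated 45 min at room temperature with 2 nM fluorescent phosphopeptide and 250 nM STAT6 (W123-T658) in pH 7.4 HEPES buffer, 1% DMSO final. Polarization signal plotted against log concentration, IC50 fitted by nonlinear regression.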

[2] = molecular target: T2, Recombinant STAT3 protein (STAT3 (G127-I722)) (Homo sapiens, UniProt P40763); assay: STAT3 Fluorescence Polarization (FP) Assay; assay type: binding; conditions: STAT3 (G127-I722) 25 nM, probe 5-FAM-GpYLPQTV-NH2 2 nM, 45-minute incubation; read-out: STAT3 (FP assay IC50 class)
T2 construct: Recombinant STAT3 protein (STAT3 (G127-I722))
How it was run: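 Read-out is fluorescence polarization (mP) after 45 min at room temperature, with IC50 fitted by nonlinear regression against log compound concentration. Mixture: 25 nM STAT3 (G127-I722), 2 nM 5-FAM-GpYLPQTV-NH2 phosphopeptide, 10 mM HEPES pH 7.4 buffer, 1% DMSO.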

T2 sequence (P40763 127-722): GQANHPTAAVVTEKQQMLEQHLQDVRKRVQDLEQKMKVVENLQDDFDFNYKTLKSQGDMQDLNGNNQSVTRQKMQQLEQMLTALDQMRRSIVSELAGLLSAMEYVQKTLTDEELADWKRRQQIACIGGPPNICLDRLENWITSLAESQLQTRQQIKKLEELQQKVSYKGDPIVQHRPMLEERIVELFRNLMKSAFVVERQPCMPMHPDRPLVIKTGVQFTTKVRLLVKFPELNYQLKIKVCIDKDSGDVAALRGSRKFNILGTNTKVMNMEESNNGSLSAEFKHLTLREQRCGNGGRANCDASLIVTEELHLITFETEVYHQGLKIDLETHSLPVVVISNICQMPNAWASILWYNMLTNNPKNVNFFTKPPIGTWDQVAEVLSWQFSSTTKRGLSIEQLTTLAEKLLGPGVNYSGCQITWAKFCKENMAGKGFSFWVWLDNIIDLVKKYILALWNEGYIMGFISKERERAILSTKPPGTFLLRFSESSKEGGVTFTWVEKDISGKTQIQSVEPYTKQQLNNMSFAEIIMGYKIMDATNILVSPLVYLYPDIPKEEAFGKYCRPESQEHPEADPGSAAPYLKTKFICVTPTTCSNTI

IC50 [1]	IC50 [2]	Structure (SMILES)
3 to 30 µM	0.1 to 1 µM	Cn1ncc(F)c1C1CN(C(=O)[C@@H]2CC[C@@H]3CCC[C@H](NC(=O)c4cc5cc(C(F)P(=O)(O)O)ccc5s4)C(=O)N32)C1 (stereo partly drawn) [Compound 751, (fluoro(2-(((3S,6S,9aS)-3-(3-(4-fluoro-1-methyl-1H-pyrazol-5-yl)azetidine-1-carbonyl)-5-oxooctahydro-1H-pyrrolo[1,2-a]azepin-6-yl)carbamoyl)benzo [b]thiophen-5-yl)methyl) phosphonic acid]
3 to 30 µM	1 to 10 µM	Cn1cc(F)c(C2CN(C(=O)[C@@H]3CC[C@@H]4CCC[C@H](NC(=O)c5cc6cc(C(F)P(=O)(O)O)ccc6s5)C(=O)N43)C2)n1 (stereo partly drawn) [Compound 754, (fluoro(2-(((3S,6S,9aS)-3-(3-(4-fluoro-1-methyl-1H-pyrazol-3-yl)azetidine-1-carbonyl)-5-oxooctahydro-1H-pyrrolo[1,2-a]azepin-6-yl)carbamoyl)benzo [b]thiophen-5-yl)methyl) phosphonic acid]
3 to 30 µM	0.1 to 1 µM	O=C(N[C@H]1CCC[C@H]2CC[C@@H](C(=O)N3CC(c4cscc4F)C3)N2C1=O)c1cc2cc(C(F)P(=O)(O)O)ccc2s1 (stereo partly drawn) [Compound 757, (fluoro(2-(((3S,6S,9aS)-3-(3-(4-fluorothiophen-3-yl)azetidine-1-carbonyl)-5-oxooctahydro-1H-pyrrolo[1,2-a]azepin-6-yl)carbamoyl)benzo [b]thiophen-5-yl)methyl) phosphonic acid]
0.3 to 3 µM	> 10 µM	CC1C[C@H]2CC[C@@H](C(=O)N3CC(c4cccnc4)C3)N2C(=O)[C@@H](NC(=O)c2cc3cc(C(F)(F)P(=O)(O)O)ccc3s2)C1 (stereo partly drawn) [Compound 759, (difluoro(2-(((3S,6S,9aR)-8-methyl-5-oxo-3-(3-(pyridin-3-yl)azetidine-1-carbonyl)octahydro-1H-pyrrolo[1,2-a]azepin-6-yl)carbamoyl)benzo [b]thiophen-5-yl)methyl) phosphonic acid]
3 to 30 µM	1 to 10 µM	O=C(N[C@H]1CCC[C@H]2CC[C@@H](C(=O)N3CCC(c4cc[nH]n4)CC3)N2C1=O)c1cc2cc(C(F)P(=O)(O)O)ccc2s1 (stereo partly drawn) [Compound 760, ((2-(((3S,6S,9aS)-3-(4-(1H-pyrazol-3-yl)piperidine-1-carbonyl)-5-oxooctahydro-1H-pyrrolo[1,2-a]azepin-6-yl)carbamoyl)benzo [b]thiophen-5-yl)fluoromethyl) phosphonic acid]
3 to 30 µM	< 0.1 µM	O=C(N[C@H]1CCCC[C@H]2CC[C@@H](C(=O)N3CC(NCC(F)F)(c4ccccn4)C3)N2C1=O)c1cc2cc(C(F)P(=O)(O)O)ccc2s1 (stereo partly drawn) [Compound 761, ((2-(((3S,6S,10aS)-3-(3-((2,2-difluoroethyl)amino)-3-(pyridin-2-yl)azetidine-1-carbonyl)-5-oxodecahydropyrrolo[1,2-a]azocin-6-yl)carbamoyl)benzo [b]thiophen-5-yl)fluoromethyl) phosphonic acid]
0.3 to 3 µM	< 0.1 µM	O=C(N[C@H]1CCC[C@H]2CC[C@@H](C(=O)N3CC(c4cnccc4F)C3)N2C1=O)c1cc2cc(C(F)(F)P(=O)(O)O)ccc2s1 [Compound 762, (difluoro(2-(((3S,6S,9aS)-3-(3-(4-fluoropyridin-3-yl)azetidine-1-carbonyl)-5-oxooctahydro-1H-pyrrolo[1,2-a]azepin-6-yl)carbamoyl)benzo [b]thiophen-5-yl)methyl) phosphonic acid]
3 to 30 µM	1 to 10 µM	CN1CCN(C(=O)[C@@H]2CC[C@@H]3CCC[C@H](NC(=O)c4cc5cc(C(F)P(=O)(O)O)ccc5s4)C(=O)N32)c2ccccc21 (stereo partly drawn) [Compound 763, (fluoro(2-(((3S,6S,9aS)-3-(4-methyl-1,2,3,4-tetrahydro-quinoxaline-1-carbonyl)-5-oxooctahydro-1H-pyrrolo[1,2-a]azepin-6-yl)carbamoyl)benzo [b]thiophen-5-yl)methyl) phosphonic acid]
3 to 30 µM	0.1 to 1 µM	COc1ncncc1C1CN(C(=O)[C@@H]2CC[C@@H]3CCC[C@H](NC(=O)c4cc5cc(C(F)P(=O)(O)O)ccc5s4)C(=O)N32)C1 (stereo partly drawn) [Compound 764, (fluoro(2-(((3S,6S,9aS)-3-(3-(4-methoxypyrimidin-5-yl)azetidine-1-carbonyl)-5-oxooctahydro-1H-pyrrolo[1,2-a]azepin-6-yl)carbamoyl)benzo [b]thiophen-5-yl)methyl) phosphonic acid]
3 to 30 µM	< 0.1 µM	O=C(N[C@H]1CCC[C@H]2CC[C@@H](C(=O)N3CC(c4cnccc4N4CCC4)C3)N2C1=O)c1cc2cc(CP(=O)(O)O)ccc2s1 [Compound 765, ((2-(((3S,6S,9aS)-3-(3-(4-(azetidin-1-yl)pyridin-3-yl)azetidine-1-carbonyl)-5-oxooctahydro-1H-pyrrolo[1,2-a]azepin-6-yl)carbamoyl)benzo [b]thiophen-5-yl)methyl) phosphonic acid]
3 to 30 µM	< 0.1 µM	COc1ccncc1C1CN(C(=O)[C@@H]2CC[C@@H]3C[C@H](C)C[C@H](NC(=O)c4cc5cc([C@H](F)P(=O)(O)O)ccc5s4)C(=O)N32)C1 [Compound 766, ((R)-fluoro(2-(((3S,6S,8R,9aR)-3-(3-(4-methoxypyridin-3-yl)azetidine-1-carbonyl)-8-methyl-5-oxooctahydro-1H-pyrrolo[1,2-a]azepin-6-yl)carbamoyl)benzo [b]thiophen-5-yl)methyl) phosphonic acid]
3 to 30 µM	0.1 to 1 µM	COC1(c2nccn2C)CN(C(=O)[C@@H]2CC[C@@H]3CCC4(CC4)C[C@H](NC(=O)c4cc5cc(C(F)(F)P(=O)(O)O)ccc5s4)C(=O)N32)C1 [Compound 768, (difluoro(2-(((3′S,6′S,10a′S)-3′-(3-methoxy-3-(1-methyl-1H-imidazol-2-yl)azetidine-1-carbonyl)-5′-oxooctahydro-5′H-spiro[cyclopropane-1,8′-pyrrolo[1,2-a]azocin]-6′-yl)carbamoyl)benzo [b]thiophen-5-yl)methyl) phosphonic acid]
3 to 30 µM	< 0.1 µM	Cc1cc(C2CN(C(=O)[C@@H]3CC[C@@H]4CCC[C@H](NC(=O)c5cc6cc(C(F)P(=O)(O)O)ccc6s5)C(=O)N43)C2)ccn1 (stereo partly drawn) [Compound 769, (fluoro(2-(((3S,6S,9aS)-3-(3-(2-methylpyridin-4-yl)azetidine-1-carbonyl)-5-oxooctahydro-1H-pyrrolo[1,2-a]azepin-6-yl)carbamoyl)benzo [b]thiophen-5-yl)methyl) phosphonic acid]
3 to 30 µM	1 to 10 µM	CC(=O)N1CCOC2(C1)CN(C(=O)[C@@H]1CC[C@@H]3CCC[C@H](NC(=O)c4cc5cc(C(F)P(=O)(O)O)ccc5s4)C(=O)N31)C2 (stereo partly drawn) [Compound 770, ((2-(((3S,6S,9aS)-3-(8-acetyl-5-oxa-2,8-diazaspiro[3.5]nonane-2-carbonyl)-5-oxooctahydro-1H-pyrrolo[1,2-a]azepin-6-yl)carbamoyl)benzo [b]thiophen-5-yl)fluoromethyl) phosphonic acid]
> 30 µM	0.1 to 1 µM	O=C(N[C@H]1CCCCC[C@H]2CC[C@@H](C(=O)N3CC(C(=O)N4CCOCC4)C3)N2C1=O)c1cc2cc(C(F)(F)P(=O)(O)O)ccc2s1 [Compound 773, (difluoro(2-(((3S,6S,11aS)-3-(3-(morpholine-4-carbonyl)azetidine-1-carbonyl)-5-oxodecahydro-1H-pyrrolo[1,2-a]azonin-6-yl)carbamoyl)benzo [b]thiophen-5-yl)methyl) phosphonic acid]
3 to 30 µM	< 0.1 µM	O=C(N[C@H]1CCCC[C@H]2CC[C@@H](C(=O)N3CC4(CC(=O)c5nccn54)C3)N2C1=O)c1cc2cc(C(F)(F)P(=O)(O)O)ccc2s1 [Compound 774, (difluoro(2-(((3S,6S,10aS)-5-oxo-3-(7′-oxo-6′,7′-dihydrospiro[azetidine-3,5′-pyrrolo[1,2-a]imidazole]-1-carbonyl)decahydropyrrolo[1,2-a]azocin-6-yl)carbamoyl)benzo [b]thiophen-5-yl)methyl) phosphonic acid]
0.3 to 3 µM	< 0.1 µM	Cc1ncccc1C1CN(C(=O)[C@@H]2CC[C@@H]3CCC[C@H](NC(=O)c4cc5cc(C(F)(F)P(=O)(O)O)ccc5s4)C(=O)N32)C1 [Compound 775, (difluoro(2-(((3S,6S,9aS)-3-(3-(2-methylpyridin-3-yl)azetidine-1-carbonyl)-5-oxooctahydro-1H-pyrrolo[1,2-a]azepin-6-yl)carbamoyl)benzo [b]thiophen-5-yl)methyl) phosphonic acid]
